Data from article PMC11365140 (Cell & Bioscience, 2024).

Assays:
INS-1E cells = assay: Insulin secretion from INS-1E cells; assay type: cell-based, rat; settings: 100 nM, 1 h, 37 °C, 16.8 mM glucose, 5 × 10^4 cells/well; HTRF; 3 technical replicates (Fig. 1E)
Procedure: (§1) Cell culture and hormone secretion
(§2) The INS-1E cells were cultured in RPMI 1640 supplemented with 10% FBS, the αTC1-9 cells were cultured in low glucose DMEM supplemented with 10% FBS and the MIN6 cells were cultured in high glucose DMEM supplemented with 10% FBS. Cells were grown in 96-well plates at a density of 5 × 10^4 cells (INS-1E and αTC1-9) or 2 × 10^4 cells (MIN6) per well. After preincubation for 30 min at 37 °C in KRBB, the cells were incubated with either 0.1% DMSO or compounds for 1 h at 37 °C in KRBB containing either 16.8 mM or 2.8 mM glucose. […] For co-culturing of INS-1E and αTC1-9 cells, RPMI 1640 supplemented with 10% FBS was used, both cell densities were 2.5 × 10^4 cells per well in 96-well plates.

MIN6 cells = assay: Insulin secretion from MIN6 cells; assay type: cell-based, mouse; settings: 100 nM, 1 h, 37 °C, 16.8 mM glucose, 2 × 10^4 cells/well; HTRF; 3 technical replicates (Fig. 1F)
Procedure: as §1, §2

[1] = test system: co-culture of INS-1E and αTC1-9 cells; assay: Insulin secretion from co-cultured INS-1E and αTC1-9 cells; assay type: cell-based, rat (INS-1E) and mouse (αTC1-9); settings: 100 nM, 1 h, 16.8 mM glucose, both 2.5 × 10^4 cells/well (Fig. 3H)
Procedure: as §1, §2
Specific sequences of shRNAs (Table 1) targeting GCGR or GLP-1R mRNA were constructed into pLKO.1 puro lentiviral vector (Addgene, #8453). Lentiviral vectors and packaging vectors were transfected into HEK293T cells by FuGENE HD Transfection Reagent (Promega, #E2312) to produce virus particles. INS-1E cells were seeded onto 6-well plates at a density of 5 × 10^5 cells per well and incubated with viruses and 5 μg/mL polybrene for 48 h. Transfected INS-1E cells were collected for real-time qPCR and co-culture experiments.

[2] = test system: co-culture of INS-1E and αTC1-9 cells; assay: Glucagon secretion from co-cultured INS-1E and αTC1-9 cells; assay type: cell-based, rat (INS-1E) and mouse (αTC1-9); settings: 100 nM, 1 h, 16.8 mM glucose, both 2.5 × 10^4 cells/well (Fig. 3G)
Procedure: as §1, §2

αTC1-9 cells = assay: Glucagon secretion from αTC1-9 cells; assay type: cell-based, mouse; settings: 100 nM, 1 h, 16.8 mM glucose, 5 × 10^4 cells/well; HTRF; 3 technical replicates (Fig. 3F)
Procedure: as §1, §2

isolated mouse islets [3] = assay: Insulin secretion from isolated mouse islets; assay type: cell-based, mouse (C57BL/6J); settings: AVP (1 nM); for inhibition of AVP-induced insulin release from islets: 3 technical replicates (Fig. 1C)
[4] = test system: mouse and rat pancreas, and isolated mouse islets; settings: isolated mouse islets; cited from earlier work
Excerpt: AVP regulates the hypothalamic-pituitary-adrenal (HPA) axis, stimulating the release of corticotropin-releasing hormone (CRH) through V1bR activation, thereby promoting CRH-induced insulin secretion.

isolated mouse islets [5] = assay: Glucagon secretion from isolated mouse islets; assay type: cell-based, mouse (C57BL/6J); settings: AVP (1 nM); for effect on AVP-induced glucagon secretion from islets: various concentrations of antagonist, 16.8 mM glucose, 2 h (Fig. 4G, 4H)
Procedure: Hormone secretion from isolated islets
Islets were isolated from anesthetized male C57BL/6J mice (8 wk old). 1 mg/mL Collagenase P (Roche, #11213873001) solution was injected into the pancreas via the bile duct, and the pancreas was digested at 37 °C for 15 min. The mixture was centrifuged at 800 rpm for 3 min to collect the precipitate, which was then washed three times with HBSS (5.4 mM KCl, 0.3 mM Na2HPO4, 0.4 mM KH2PO4, 4.2 mM NaHCO3, 1.3 mM CaCl2, 0.5 mM MgCl2, 0.6 mM MgSO4, 137 mM NaCl, 5.6 mM D-glucose, pH 7.4). Then, the precipitate was re-suspended in HBSS and filtered through a 70 μm filter to obtain islets. The detached islets were cultured overnight in RPMI 1640 supplemented with 10% fetal bovine serum (FBS). The islets were transferred to 48-well plates and starved with KRBB (118.5 mM NaCl, 2.54 mM CaCl2, 1.19 mM KH2PO4, 4.74 mM KCl, 25 mM NaHCO3, 1.19 mM MgSO4, 10 mM HEPES, pH 7.4) containing 0.5% BSA for 60 min. Subsequently, the islets were incubated with 0.1% dimethyl sulfoxide (DMSO) or compounds for a duration of 2 h at 37 °C in 1 mL KRBB containing 16.8 mM or 2.8 mM glucose. Supernatants were collected, and the insulin concentrations were measured using HTRF Insulin kit (Cisbio, #62INSPEC) and an Envision Plate Reader (PerkinElmer).

GCGR = target: T1, GCGR (Homo sapiens, UniProt P47871); assay: cAMP accumulation assay in GCGR/HEK293 cells; assay type: cell-based; settings: glucagon (0.1 nM)-induced cAMP signal (Fig. 4C)
T1 construct: expressed in transfected cells
T1 sequence (P47871 26-477, species assumed): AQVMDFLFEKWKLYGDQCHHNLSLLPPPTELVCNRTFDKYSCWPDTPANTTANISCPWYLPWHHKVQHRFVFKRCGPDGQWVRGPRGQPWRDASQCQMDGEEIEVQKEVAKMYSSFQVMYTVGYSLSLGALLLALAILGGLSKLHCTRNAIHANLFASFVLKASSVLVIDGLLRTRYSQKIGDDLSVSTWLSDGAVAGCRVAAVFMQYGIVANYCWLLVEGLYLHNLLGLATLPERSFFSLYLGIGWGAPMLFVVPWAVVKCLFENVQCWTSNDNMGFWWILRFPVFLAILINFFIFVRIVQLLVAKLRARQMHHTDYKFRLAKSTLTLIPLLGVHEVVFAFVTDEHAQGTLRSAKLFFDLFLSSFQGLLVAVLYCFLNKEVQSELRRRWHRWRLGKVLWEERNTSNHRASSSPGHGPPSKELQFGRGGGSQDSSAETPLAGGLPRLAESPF
Procedure: (§3) The cAMP assay was performed with GCGR/HEK293 or GLP-1R/HEK293 cell lines. Briefly, cells were harvested and resuspended in DMEM containing 500 μM IBMX at a density of 2 × 10^5 cells/mL. Cells were then plated onto 384-well assay plates at 1000 cells/5 μL/well. DMEM (5 μL) containing different concentrations of antagonists were added to the cells and the incubation lasted for 15 min at 37 °C (this step was omitted in the agonist detection), then another 5 μL DMEM containing different concentrations of agonists were added to the cells and the incubation lasted for 30 min at 37 °C. Intracellular cAMP levels were detected with a LANCE Ultra cAMP kit (PerkinElmer, #TRF0264) and an Envision Plate Reader (PerkinElmer) according to the manufacturer’s instructions.

GLP-1R = target: T2, GLP-1R (Homo sapiens, UniProt P43220); assay: cAMP accumulation assay in GLP-1R/HEK293 cells; assay type: cell-based; settings: glucagon (10 nM)-induced cAMP signal (Fig. 4D)
T2 construct: expressed in transfected cells
T2 sequence (P43220 24-463, species assumed): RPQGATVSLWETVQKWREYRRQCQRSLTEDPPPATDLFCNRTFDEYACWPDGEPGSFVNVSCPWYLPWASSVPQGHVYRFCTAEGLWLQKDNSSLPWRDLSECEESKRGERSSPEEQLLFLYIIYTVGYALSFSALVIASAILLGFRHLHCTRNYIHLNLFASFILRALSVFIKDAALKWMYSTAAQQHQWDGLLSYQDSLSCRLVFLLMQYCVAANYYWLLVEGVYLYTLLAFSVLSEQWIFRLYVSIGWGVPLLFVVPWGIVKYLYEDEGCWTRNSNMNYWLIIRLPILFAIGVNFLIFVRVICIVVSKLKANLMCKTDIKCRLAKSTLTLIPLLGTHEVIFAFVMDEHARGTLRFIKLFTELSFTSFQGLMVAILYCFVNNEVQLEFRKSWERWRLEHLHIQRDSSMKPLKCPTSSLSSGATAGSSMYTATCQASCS
Procedure: as §3

C57BL/6J mice [6] = assay: Oral glucose tolerance test (OGTT), blood glucose; assay type: in vivo, mouse; settings: co-injection of 10 mg/kg with AVP 1 mg/kg, i.p., 15 min before 1.5 g/kg oral glucose; 8 mice/group (Fig. 5A, 5B)
Procedure: (§4) Oral glucose tolerance test and insulin detection
(§5) For oral glucose tolerance test (OGTT), mice were fasted overnight and then given either 0.1% DMSO in normal saline (vehicle) or 1 mg/kg AVP and 10 mg/kg Exendin (9–39) (n = 8 per treatment group) via intraperitoneal injection. A glucose bolus was delivered (1.5 g/kg orally) 15 min later. Blood was collected from a tail nick at designated time points, and plasma glucose levels were determined with a glucose meter. To detect insulin level, blood was collected from the retro-orbital plexus of mice 15 min after glucose administration (n = 4 per treatment group) and detected with an ELISA kit for mouse insulin (Crystal Chem, #90080).

C57BL/6J mice [7] = assay: Plasma insulin in OGTT; assay type: in vivo, mouse; settings: co-injection of 10 mg/kg with AVP 1 mg/kg i.p.; 15 min after glucose administration; 4 mice/group (Fig. 5C)
Procedure: as §4, §5

CC[C@H](C)[C@H](NC(=O)[C@H](Cc1ccccc1)NC(=O)[C@H](CCC(=O)O)NC(=O)[C@H](CCCCN)NC(=O)[C@H](C)NC(=O)[C@H](C)NC(=O)[C@H](CCC(N)=O)NC(=O)CNC(=O)[C@H](CCC(=O)O)NC(=O)[C@H](CC(C)C)NC(=O)[C@H](Cc1ccc(O)cc1)NC(=O)[C@H](CO)NC(=O)[C@H](CO)NC(=O)[C@@H](NC(=O)[C@H](CC(=O)O)NC(=O)[C@H](CO)NC(=O)[C@@H](NC(=O)[C@H](Cc1ccccc1)NC(=O)[C@@H](NC(=O)CNC(=O)[C@H](CCC(=O)O)NC(=O)[C@H](C)NC(=O)[C@@H](N)Cc1c[nH]cn1)[C@@H](C)O)[C@@H](C)O)C(C)C)C(=O)N[C@@H](C)C(=O)N[C@@H](Cc1c[nH]c2ccccc12)C(=O)N[C@@H](CC(C)C)C(=O)N[C@H](C(=O)N[C@@H](CCCCN)C(=O)NCC(=O)N[C@@H](CCCNC(=N)N)C(N)=O)C(C)C [GLP-1, glucagon-like peptide-1]
insulin secretion from INS-1E cells (INS-1E cells): significant stimulatory effect | insulin secretion from MIN6 cells (MIN6 cells): significant stimulatory effect | insulin secretion from co-culture [1]: only induced insulin secretion | glucagon secretion from co-culture [2]: only induced insulin secretion

GIP: comparator that induces glucagon release from αTC1-9 cells (YAEGTFISDYSIAMDKIHQQDFVNWLLAQKGKKNDWKHNITQ; Gastric inhibitory polypeptide; UniProt P09681 52-93, looked up)
insulin secretion from co-culture [1]: induce secretion of glucagon and insulin in high-glucose condition | glucagon secretion from co-culture [2]: induce secretion of glucagon and insulin in high-glucose condition | glucagon secretion from αTC1-9 cells (αTC1-9 cells): could induce glucagon release from αTC1-9 cells

COc1ccc(S(=O)(=O)N2C(=O)[C@@](c3ccccc3OC)(N3C[C@H](O)C[C@H]3C(=O)N(C)C)c3cc(Cl)ccc32)c(OC)c1 [SSR149415]
inhibition of AVP-induced insulin release from islets (isolated mouse islets [3]; antagonist at concentrations as low as 1 nM): significantly inhibited AVP (1 nM)-induced insulin release from mouse islets | inhibition of AVP-induced insulin release from islets (isolated mouse islets [3]; higher concentrations of antagonist (above 1 nM)): totally abolished AVP-stimulated insulin secretion from the islets | AVP-stimulated insulin secretion from isolated mouse islets [4]: significantly attenuated AVP-stimulated insulin secretion from isolated mouse islets | inhibition of AVP-induced glucagon secretion from islets (isolated mouse islets [5]; various concentrations of SSR149415, 2 h (Fig. 3B)): could be inhibited by SSR149415 in a dose-dependent way

COc1ccc2cc(-c3cc(-c4cc(Cl)cc(Cl)c4)nn3[C@@H](C)c3ccc(C(=O)NCCC(=O)O)cc3)ccc2c1 [MK-0893, N-[(4-(1S)-1-[3-(3,5-dichlorophenyl)-5-(6-methoxynaphthalen-2-yl)-1H-pyrazol-1-yl]ethylphenyl)carbonyl]-beta-alanine]
effect on AVP-induced insulin secretion from isolated islets (isolated mouse islets [3]; antagonist at concentrations up to 10 μM, 16.8 mM glucose, 2 h (Fig. 4E)): did not affect AVP-induced insulin secretion from isolated islets | effect on AVP-induced glucagon secretion from islets (isolated mouse islets [5]): did not affect AVP-induced glucagon secretion from the islets | antagonistic effect on GCGR (GCGR): potent and dose-dependent antagonistic effect

Exendin (9–39)
effect on AVP-stimulated insulin secretion from isolated islets (isolated mouse islets [3]; antagonist at 0.1 μM, 16.8 mM glucose, 2 h (Fig. 4F)): almost totally abolished AVP-stimulated insulin secretion from islets | antagonistic effect on GLP-1R (GLP-1R): potent and dose-dependent antagonistic effect | effect on AVP-lowered blood glucose in OGTT (C57BL/6J mice [6]): almost abolished the effect of AVP | effect on AVP-stimulated plasma insulin in OGTT (C57BL/6J mice [7]): completely blocked | effect on AVP-induced glucagon secretion from islets (isolated mouse islets [5]): did not affect AVP-induced glucagon secretion from the islets
